{"source": "paper PMC4159591", "about": "“Crystal structure of an HD‐GYP domain cyclic‐di‐GMP phosphodiesterase reveals an enzyme with a novel trinuclear catalytic iron centre” (Molecular Microbiology, 2013)", "key": {"PmGH [1]": {"molecular_target": "T1, PmGH (Persephonella marina, UniProt C0QQ26, C41A/C197A)", "T1 construct": "gene PERMA_0986; GAF + HD-GYP domains; synthetic gene in pET47b, E. coli BL21(DE3); N-terminal His6 tag cut with HRV 3C; homodimer; tri-iron centre", "T1 sequence (C0QQ26 entry or part of it C41A/C197A)": "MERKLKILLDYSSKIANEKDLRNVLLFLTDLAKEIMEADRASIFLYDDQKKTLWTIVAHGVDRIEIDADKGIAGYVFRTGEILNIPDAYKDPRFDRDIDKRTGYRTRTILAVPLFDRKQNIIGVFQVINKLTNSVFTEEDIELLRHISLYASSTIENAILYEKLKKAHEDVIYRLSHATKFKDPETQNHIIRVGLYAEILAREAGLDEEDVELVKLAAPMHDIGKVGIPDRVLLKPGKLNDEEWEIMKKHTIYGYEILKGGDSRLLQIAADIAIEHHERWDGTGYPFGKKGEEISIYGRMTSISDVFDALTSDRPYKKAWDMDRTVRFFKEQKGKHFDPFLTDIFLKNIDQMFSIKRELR", "experiment": "X-ray crystal structure (crystal soak), […] A", "assay_type": "binding", "conditions": "crystals soaked with 30 mM GMP; tri-iron centre intact; active site, phosphate bridges M and H iron sites; monomer B only"}, "PmGH [2]": {"molecular_target": "T1, PmGH", "experiment": "X-ray crystal structure (crystal soak), […] A; hydrolysis in solution shown by HPLC", "assay_type": "binding", "conditions": "crystals soaked with 25 mM c-di-GMP and 100 mM EDTA; only G-site Fe bound; bound to monomer B only, HD-GYP active site"}, "PmGH [3]": {"molecular_target": "T2, PmGH (Persephonella marina, UniProt C0QQ26, C41A/C197A/D305A)", "T2 construct": "gene PERMA_0986; GAF + HD-GYP domains; synthetic gene in pET47b, E. coli BL21(DE3); N-terminal His6 tag cut with HRV 3C; homodimer; tri-iron centre", "T2 sequence (C0QQ26 entry or part of it C41A/C197A/D305A)": "as the sequence (C0QQ26 entry or part of it C41A/C197A) above, with D305A counted along it", "experiment": "HPLC phosphodiesterase assay", "assay_type": "biochemical", "conditions": "100 uM c-di-GMP, pH 7.6, 10 mM MgCl2, 10 mM MnCl2, 0.5 mM EDTA, 37 C"}, "PmGH [4]": {"molecular_target": "T3, PmGH (Persephonella marina, UniProt C0QQ26, C41A/E185A/C197A)", "T3 construct": "gene PERMA_0986; GAF + HD-GYP domains; synthetic gene in pET47b, E. coli BL21(DE3); N-terminal His6 tag cut with HRV 3C; homodimer; tri-iron centre", "T3 sequence (C0QQ26 entry or part of it C41A/E185A/C197A)": "as the sequence (C0QQ26 entry or part of it C41A/C197A) above, with E185A counted along it", "experiment": "HPLC phosphodiesterase assay", "assay_type": "biochemical", "conditions": "100 uM c-di-GMP, pH 7.6, 10 mM MgCl2, 10 mM MnCl2, 0.5 mM EDTA, 37 C"}, "[5]": {"molecular_target": "GAF/HD-GYP protein from Persephonella marina EX-H1 (PmGH) (Persephonella marina EX-H1) (UniProt C0QQ26)", "experiment": "crystal structure; hanging drop vapour diffusion, 0.1 M MES pH 6.5, 0.9 M succinic acid, 2% PEG 2000; space group I222 with one dimer in the asymmetric unit; native structure at 2.03 Å"}}, "data": [{"compound": "Nc1nc2c(ncn2[C@@H]2O[C@H](COP(=O)(O)O)[C@@H](O)[C@H]2O)c(=O)[nH]1", "note": "[GMP]", "values": [{"measurement": "X-ray crystal structure (crystal soak), 2.55 A", "setting": "PmGH [1]", "value": "Crystal soaks with GMP and c‐di‐GMP gave identical structures of PmGH in complex with GMP"}]}, {"compound": "Nc1nc2c(ncn2[C@@H]2O[C@@H]3COP(=O)(O)O[C@H]4[C@@H](O)[C@H](n5cnc6c(=O)[nH]c(N)nc65)O[C@@H]4COP(=O)(O)O[C@H]3[C@H]2O)c(=O)[nH]1", "note": "[c-di-GMP]", "values": [{"measurement": "X-ray crystal structure (crystal soak), 2.68 A; hydrolysis in solution shown by", "setting": "PmGH [2]", "value": "revealed well defined difference electron density for a bound c‐di‐GMP molecule at the active site"}, {"measurement": "c-di-GMP hydrolysis", "setting": "PmGH [3]", "value": "marked reduction in their ability to hydrolyse c‐di‐GMP, hydrolysis of c‐di‐GMP is still detected"}, {"measurement": "c-di-GMP hydrolysis", "setting": "PmGH [4]", "value": "marked reduction in their ability to hydrolyse c‐di‐GMP, hydrolysis of c‐di‐GMP is still detected"}]}, {"compound": "GAF/HD-GYP protein from Persephonella marina EX-H1 (PmGH) (from UniProt C0QQ26 2-363) (enzyme)", "values": [{"measurement": "stoichiometry N", "setting": "[5]", "value": 2}]}]}
